Here are results for one molecule from PubChem BioAssay AID2627 (Broad Institute, 2010).

The assay has as its target Alpha-synuclein (Homo sapiens) (UniProt P37840). The assay can be described thus: increase of SNCA protein level in cells – Western blot, H4 cells, dose response (AID 2627). A general note: In western blotting, separated proteins are transferred to a membrane and probed.

Regarding `c1ccc2c(Nc3nnc(-c4ccncc4)s3)cccc2c1`, the ECmax is 1000 nM.
